Results on 15 compounds are retold here after patent US7713971B2, “1,2,4-triazine derivatives, preparation and use thereof in human therapy” (Pierre Fabre Medicament, priority 2005, dated 2010).

The term EC50 denotes the concentration that produces a half-maximal response.

The target of assay [1] is T1, human PPARα (Homo sapiens, UniProt Q07869).
T1 construct: expressed in transfected cells; host or cells: Cos-7 cells (ATCC, CRL-1651)
T1 sequence (Q07869 239-466 limits assumed): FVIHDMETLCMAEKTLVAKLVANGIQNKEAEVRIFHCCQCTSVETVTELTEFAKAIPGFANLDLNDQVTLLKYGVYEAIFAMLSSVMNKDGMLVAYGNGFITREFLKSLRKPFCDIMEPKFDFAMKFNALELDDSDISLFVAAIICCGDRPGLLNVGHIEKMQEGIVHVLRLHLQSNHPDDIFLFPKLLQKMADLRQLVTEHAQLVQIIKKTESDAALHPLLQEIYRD
The assay is described as follows: Reporter gene transactivation, hPPAR-GAL4 alpha. It counts as cell-based. The following applies: transfected Cos-7 cells, Gal-4 luciferase reporter, 24 hours treatment. (In general: Reporter assays use an easily measured gene product as a stand-in for the process of interest.)

The target in assay [2] is T2, human PPARδ (Homo sapiens, UniProt Q03181).
T2 construct: expressed in transfected cells; host or cells: Cos-7 cells (ATCC, CRL-1651)
T2 sequence (Q03181 211-439 limits assumed): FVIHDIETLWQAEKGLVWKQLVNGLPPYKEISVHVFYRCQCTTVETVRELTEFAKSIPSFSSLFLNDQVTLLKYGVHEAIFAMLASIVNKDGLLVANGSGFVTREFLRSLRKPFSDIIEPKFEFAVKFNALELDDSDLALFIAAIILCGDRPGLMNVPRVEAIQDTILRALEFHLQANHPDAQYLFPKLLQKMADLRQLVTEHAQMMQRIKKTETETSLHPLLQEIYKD
The assay can be described thus: Reporter gene transactivation, hPPAR-GAL4 delta. It counts as cell-based. The following applies: transfected Cos-7 cells, Gal-4 luciferase reporter, 24 hours treatment.

Assay [3] addresses T3, human PPARγ (Homo sapiens, UniProt P37231).
T3 construct: expressed in transfected cells; host or cells: Cos-7 cells (ATCC, CRL-1651)
T3 sequence (P37231 238-503 limits assumed): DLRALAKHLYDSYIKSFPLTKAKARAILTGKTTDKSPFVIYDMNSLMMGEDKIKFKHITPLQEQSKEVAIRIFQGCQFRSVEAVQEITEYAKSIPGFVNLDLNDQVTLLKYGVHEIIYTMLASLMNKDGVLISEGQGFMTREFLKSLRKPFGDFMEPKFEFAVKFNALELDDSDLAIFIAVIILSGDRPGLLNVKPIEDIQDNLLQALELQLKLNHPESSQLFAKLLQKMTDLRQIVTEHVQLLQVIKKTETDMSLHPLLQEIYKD
The assay is described as follows: Reporter gene transactivation, hPPAR-GAL4 gamma. It counts as cell-based. The following applies: transfected Cos-7 cells, Gal-4 luciferase reporter, 24 hours treatment.

Assay [4] concerns insulin-resistant male rat (Ico: ZUCKER-fa/fa). The assay is described as follows: Normalization of metabolic parameters (cholesterol, plasma triglycerides) in insulin-resistant rat. In kind it is in vivo. Conditions: oral route, once per day for four days, Zucker fa/fa rat unfed 16-18 hours; for change in vivo at 2.5 mg/kg / change in vivo at 10 mg/kg: 96 h. The procedure:
Normalization of metabolic parameters (cholesterol, plasma triglycerides) in an insulin-resistant male rat (Ico: ZUCKER-fa/fa), unfed for 16-18 hours, after treatment by oral route, once per day for four days, with the compounds to be evaluated or their administration vehicle.
These metabolic parameters are measured by spectrophotometry at the beginning and the end of each animal's treatment.

Where [5] appears, read: at 2.5 mg/kg, read-out: Plasma cholesterol.
Setting [6] is: at 10 mg/kg, read-out: Plasma cholesterol.
The mark [7] stands for this setting: at 10 mg/kg, read-out: Plasma triglycerides.

Like-named read-outs stand apart in the source and are kept apart here. Some results are limits rather than exact numbers.

Take `CCOC(=O)C(C)(C)Oc1ccc(CCNc2nn(COCc3ccccc3)c(=O)n(COCc3ccccc3)c2=O)cc1` [Example 110, Ethyl 2-{4-[2-(2,4-bis-benzyloxymethyl-3,5-dioxo-2,3,4,5-tetrahydro-[1,2,4]triazin-6-ylamino)ethyl]-phenoxy}-2-methyl-propionate]: the EC50 is 1000 to 3000 nM in assay [1] and greater than 10000 nM in assay [2].

`CCCCCCCn1c(=O)c(NCCc2ccc(OC(C)(C)C(=O)OCC)cc2)nn(C)c1=O` [Example 106, Ethyl 2-{4-[2-(4-heptyl-2-methyl-3,5-dioxo-2,3,4,5-tetrahydro-[1,2,4]triazin-6-ylamino)-ethyl]-phenoxy}-2-methyl-propionate]: the values for the concentration for a half-maximal effect (EC50) in assay [1] and in assay [2] were roughly 1000 nM and greater than 10000 nM, respectively.

Consider `CCOC(=O)C(C)(C)Oc1ccc(CCN(CCCc2ccccc2)c2nn(C)c(=O)n(C)c2=O)cc1` [Example 115, Ethyl 2-(4-{2-[(2,4-dimethyl-3,5-dioxo-2,3,4,5-tetrahydro-[1,2,4]triazin-6-yl)-(3-phenylpropyl)-amino]-ethyl}-phenoxy)-2-methyl-propionate], for which the EC50 was roughly 3000 nM in assay [1] and greater than 10000 nM in assay [2].

Turning to `CC(C)(Oc1ccc(C(=O)c2ccc(Cl)cc2)cc1)C(=O)O` [Fenofibric acid, reference compound], the EC50 in assay [1] is 16900 nM; in assay [2], greater than 100000 nM.

In the case of `CCCCn1c(=O)c(OCCCCCc2cccc(OC(C)(C)C(=O)OCC)c2)nn(C)c1=O` [Example 11, Ethyl 2-{3-[5-(4-butyl-2-methyl-3,5-dioxo-2,3,4,5-tetrahydro-[1,2,4]triazin-6-yloxy)-pentyl]-phenoxy}-2-methyl-propionate], the EC50 in assay [3] is 1000 to 3000 nM; in assay [1], 300 to 1000 nM. The change in vivo at 2.5 mg/kg in assay [4] (setting [5]) is -25%. Also, the change in vivo at 10 mg/kg in assay [4] (setting [6]) was -25%; in assay [4] (setting [7]), -37%. Besides, in assay [4] (at 2.5 mg/kg), the Plasma triglycerides result is “inactive at 2.5”.

On to `CCOC(=O)C(C)(C)Oc1cccc(CCCCNc2nn(CCC#N)c(=O)n(CCCC(F)(F)F)c2=O)c1` [Example 81, Ethyl 2-(3-{4-[2-(2-cyano-ethyl)-3,5-dioxo-4-(4,4,4-trifluoro-butyl)-2,3,4,5-tetrahydro-[1,2,4]triazin-6-ylamino]-butyl}-phenoxy)-2-methyl-propionate], for which the EC50 was greater than 10000 nM in assay [3] and 300 to 1000 nM in assay [1]. The change in vivo at 10 mg/kg was -12% in assay [4] (setting [6]) and -17% in assay [4] (setting [7]).

For `CCOC(=O)C(C)(C)Oc1cccc(CCCNc2nn(C)c(=O)n(CCCC(F)(F)F)c2=O)c1` [Example 65, Ethyl 2-methyl-2-(3-{3-[2-methyl-3,5-dioxo-4-(4,4,4-trifluoro-butyl)-2,3,4,5-tetrahydro-[1,2,4]triazin-6-ylamino]-propyl}-phenoxy)-propionate], the concentration for a half-maximal effect (EC50) in assay [3] was greater than 10000 nM; in assay [1], 100 to 300 nM. Also, the change in vivo at 2.5 mg/kg in assay [4] (setting [5]) is -13%. For the same compound, the change in vivo at 10 mg/kg in assay [4] (setting [6]) is -23%; in assay [4] (setting [7]) it was -13%. Also, the Plasma triglycerides entry in assay [4] (at 2.5 mg/kg) was “inactive at 2.5”.

On to `CCOC(=O)C(C)(C)Oc1cccc(CCCCNc2nn(C)c(=O)n(CCCC(F)(F)F)c2=O)c1` [Example 77, Ethyl 2-methyl-2-(3-{4-[2-methyl-3,5-dioxo-4-(4,4,4-trifluoro-butyl)-2,3,4,5-tetrahydro-[1,2,4]triazin-6-ylamino]-butyl}-phenoxy)-propionate], for which the values for the EC50 in assay [3] and in assay [1] were 3000 to 10000 nM and roughly 300 nM, respectively. Besides, the change in vivo at 2.5 mg/kg in assay [4] (setting [5]) is -29%. Also, in assay [4] (setting [6]), the change in vivo at 10 mg/kg is -35%. Also, the Plasma triglycerides result in assay [4] (at 10 mg/kg) was “active at 10 mg/kg”.

For `CCCCCCCn1nc(OCCCCCc2cccc(OC(C)(C)C(=O)OCC)c2)c(=O)n(CCCC)c1=O` [Example 15, Ethyl 2-{3-[5-(4-butyl-2-heptyl-3,5-dioxo-2,3,4,5-tetrahydro-[1,2,4]triazin-6-yloxy)-pentyl]-phenoxy}-2-methyl-propionate], the concentration giving a half-maximal response (EC50) is 100 to 300 nM in assay [3] and 1 to 3 nM in assay [1]. The change in vivo at 2.5 mg/kg in assay [4] (setting [5]) is -4%; in assay [4] (at 2.5 mg/kg, read-out: Plasma triglycerides), -22%. In addition, the change in vivo at 10 mg/kg was -8% in assay [4] (setting [6]) and -63% in assay [4] (setting [7]).

Turning to `CCCCCCCn1nc(NCCCCc2cccc(OC(C)(C)C(=O)OCC)c2)c(=O)n(CCCC(F)(F)F)c1=O` [Example 82, Ethyl 2-(3-{4-[2-heptyl-3,5-dioxo-4-(4,4,4-trifluoro-butyl)-2,3,4,5-tetrahydro-[1,2,4]triazin-6-ylamino]-butyl}-phenoxy)-2-methyl-propionate], the concentration for a half-maximal effect (EC50) in assay [3] was 100 to 300 nM; in assay [1], roughly 10 nM. Besides, in assay [4] (setting [6]), the change in vivo at 10 mg/kg was -13%. Further, the Plasma triglycerides entry in assay [4] (at 10 mg/kg) is reported as “active at 10 mg/kg”.

Consider `CCCCCCCn1nc(NCCCc2cccc(OC(C)(C)C(=O)OCC)c2)c(=O)n(Cc2ccccc2)c1=O` [Example 72, Ethyl 2-{3-[3-(4-Benzyl-2-heptyl-3,5-dioxo-2,3,4,5-tetrahydro-[1,2,4]triazin-6-ylamino)-propyl]-phenoxy}-2-methyl-propionate], for which the concentration for a half-maximal effect (EC50) in assay [3] and in assay [1] was 3000 to 10000 nM each time. Further, the change in vivo at 10 mg/kg in assay [4] (setting [6]) is -21%. Also, the Plasma triglycerides entry in assay [4] (at 10 mg/kg) was “inactive at 10”.

Regarding `CCCCCCCn1nc(NCCc2ccc(OC(C)(C)C(=O)OCC)cc2)c(=O)n(Cc2ccccc2)c1=O` [Example 109, Ethyl 2-{4-[2-(4 benzyl-2-heptyl-3,5-dioxo-2,3,4,5-tetrahydro-[1,2,4]triazin-6-ylamino)-ethyl]-phenoxy}-2-methyl-propionate], the figures for the half-maximal effective concentration (EC50) in assay [1] and in assay [2] were roughly 1000 nM and 3000 to 10000 nM, respectively.

In the case of `CCOC(=O)C(C)(C)Oc1cccc(CCCCNc2nn(CCCC(F)(F)F)c(=O)n(C)c2=O)c1` [Example 74, Ethyl 2-methyl-2-(3-{4-[4-methyl-3,5-dioxo-2-(4,4,4-trifluoro-butyl)-2,3,4,5-tetrahydro-[1,2,4]triazin-6-ylamino]-butyl}-phenoxy)-propionate], the EC50 was 3000 to 10000 nM in assay [3] and roughly 1000 nM in assay [1]. Further, the change in vivo at 2.5 mg/kg in assay [4] (setting [5]) was -18%. In addition, the change in vivo at 10 mg/kg is -29% in assay [4] (setting [6]) and -26% in assay [4] (setting [7]). For the same compound, the Plasma triglycerides result in assay [4] (at 2.5 mg/kg) was “inactive at 2.5”.

Take `CCOC(=O)C(C)(C)Oc1cccc(CCCCCNc2nn(CCCC(F)(F)F)c(=O)n(CCCC(F)(F)F)c2=O)c1` [Example 92, Ethyl 2-(3-{5-[3,5-dioxo-2,4-bis-(4,4,4-trifluoro-butyl)-2,3,4,5-tetrahydro-[1,2,4]triazin-6-ylamino]-pentyl}-phenoxy)-2-methyl-propionate]: the EC50 in assay [3] lay in the range of 3000 to 10000 nM; in assay [1], 3 to 10 nM. Besides, in assay [4] (setting [6]), the change in vivo at 10 mg/kg is -18%. Moreover, in assay [4] (at 10 mg/kg), the Plasma triglycerides entry was “inactive at 10”.

Consider `CCCCCCCn1c(=O)c(NCCCc2cccc(OC(C)(C)C(=O)OCC)c2)nn(CCCC(F)(F)F)c1=O` [Example 68, Ethyl 2-(3-{3-[4-heptyl-3,5-dioxo-2-(4,4,4-trifluoro-butyl)-2,3,4,5-tetrahydro-[1,2,4]triazin-6-ylamino]-propyl}-phenoxy)-2-methyl-propionate], for which the EC50 is 3000 to 10000 nM in assay [3] and 100 to 300 nM in assay [1]. The change in vivo at 10 mg/kg in assay [4] (setting [6]) is -21%. For the same compound, in assay [4] (at 10 mg/kg), the Plasma triglycerides result is “active at 10 mg/kg”.
